Biological target: T1, Receptor-type tyrosine-protein kinase FLT3 (Homo sapiens, UniProt P36888)
T1 sequence (P36888 whole entry): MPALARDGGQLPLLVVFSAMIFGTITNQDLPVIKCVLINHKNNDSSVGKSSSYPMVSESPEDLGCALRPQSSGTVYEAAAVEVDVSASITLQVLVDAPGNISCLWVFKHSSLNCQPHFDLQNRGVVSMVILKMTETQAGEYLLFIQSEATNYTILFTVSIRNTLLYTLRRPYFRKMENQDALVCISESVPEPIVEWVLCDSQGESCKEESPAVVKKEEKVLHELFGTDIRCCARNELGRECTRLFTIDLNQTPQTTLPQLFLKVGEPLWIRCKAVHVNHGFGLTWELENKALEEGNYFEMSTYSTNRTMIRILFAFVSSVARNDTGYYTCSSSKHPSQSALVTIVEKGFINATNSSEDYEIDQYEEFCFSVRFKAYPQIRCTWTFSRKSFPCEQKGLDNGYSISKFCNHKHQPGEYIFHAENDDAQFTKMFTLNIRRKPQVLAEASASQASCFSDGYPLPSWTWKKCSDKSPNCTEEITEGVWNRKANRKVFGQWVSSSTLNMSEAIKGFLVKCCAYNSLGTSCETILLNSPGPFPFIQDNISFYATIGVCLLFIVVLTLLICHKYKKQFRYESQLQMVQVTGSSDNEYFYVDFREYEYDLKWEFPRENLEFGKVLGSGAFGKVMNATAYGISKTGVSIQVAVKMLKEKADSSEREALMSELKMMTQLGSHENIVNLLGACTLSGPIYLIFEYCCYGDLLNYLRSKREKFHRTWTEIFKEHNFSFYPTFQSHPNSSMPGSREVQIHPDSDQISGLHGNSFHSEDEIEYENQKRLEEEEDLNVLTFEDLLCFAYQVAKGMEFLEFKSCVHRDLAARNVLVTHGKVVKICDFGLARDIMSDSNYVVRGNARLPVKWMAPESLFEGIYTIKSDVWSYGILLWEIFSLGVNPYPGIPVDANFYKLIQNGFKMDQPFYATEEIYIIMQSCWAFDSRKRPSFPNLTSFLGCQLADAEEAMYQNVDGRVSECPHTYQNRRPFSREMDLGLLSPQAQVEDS
Assay: Inhibition of FLT3 (unknown origin)

IC50: 0.11 nM
Compound: N[C@H]1CC[C@@H](Nc2cncc(-c3cccc(CC4SC(=O)NC4=O)c3)n2)CC1 (stereo partly specified)
